Experimental data taken from patent publication US20020132758A1, “Method for identifying compounds to treat medical pathologies associated with molecular crystallization” (priority 2001, published 2002).
≈ marks a conversion by molar mass, not a printed value.

Assay: Water solubility of cholesterol at 37° C. determined by HPLC
Format: physicochemical
Procedure: Reference is made to two chemical compounds: pure cholesterol (C-pure), and modified cholesterol (C-mod). C-mod is made by partial thermal degradation of C-pure. As a consequence, C-mod is structurally very similar, but not identical, to C-pure. In the first of three steps to this example, a quantity of C-mod is produced by heating 10 grams of dry C-pure in the presence of oxygen for 30 minutes at 134° C., which is a temperature that is 15° below the melting point of the pure substance. In a second step to this example, 10 mg of C-pure is added to one liter of distilled water. The resulting suspension is then stirred at 50° C. for two hours, followed by stirring at 37° C. for 6 hours. The concentration of solute in solution at 37° is then determined by an HPLC analytical method. […] In the third and final step to this example, the process of the second step is repeated with 10 mg of C-pure in one liter of distilled water, and 10 mg of C-mod is also added to the initial suspension. In this case, HPLC determination of the concentration of C-pure in the supernatant solution results in a finding of 1.2 mg/100 mL. […] This increase in apparent solubility of C-pure is considered to be a consequence of the selective inhibition of crystal nucleation and growth, due to the presence of molecules that are similar to but not identical to those of the solute.

CC(C)CCC[C@@H](C)[C@H]1CC[C@H]2[C@@H]3CC=C4C[C@@H](O)CC[C@]4(C)[C@H]3CC[C@]12C [C-pure, cholesterol]
concentration of C-pure in the supernatant solution (apparent solubility) (10 mg C-pure plus 10 mg C-mod in one liter distilled water, 37° C., HPLC specific to C-pure): 1.2 mg/100 mL
solubility thermodynamic (thermodynamic from solid, 10 mg C-pure in one liter distilled water, stirred 50° C. 2 h then 37° C. 6 h, HPLC, no C-mod): 4.5 µg/mL (≈ 11.6 µM)
